≈ marks a conversion by molar mass, not a printed value. Where “and” joins values, the source holds several entries; their conditions need not be identical. Identical values can stand only once.
Columns and labels:
Experiment in all cases: ≥ marks a high value that may be exact or a test limit, other limits are often not marked, values filed in µg/mL are converted to µM
Candida albicans SC5314 = test system: Candida albicans SC5314
[1] = test system: Candida albicans CCARM 14022
[2] = test system: Candida albicans CCARM 14020
[3] = test system: Candida albicans CCARM 14021
[4] = test system: Klebsiella pneumoniae ATCC 27736
Acinetobacter baumannii = test system: Acinetobacter baumannii
[5] = test system: Bacillus subtilis ATCC 6633
[6] = test system: Staphylococcus epidermidis ATCC 1435
[7] = test system: Pseudomonas aeruginosa ATCC BAA-427
Staphylococcus aureus = test system: Staphylococcus aureus
[8] = test system: Pseudomonas aeruginosa ATCC 10662
Escherichia coli JM109 = test system: Escherichia coli JM109
[9] = test system: Vibrio campbellii KCCM 40684
[10] = test system: Vibrio ordalii KCCM 41669
[11] = test system: Vibrio harveyi ATCC 14126
[12] = test system: Vibrio vulnificus KCTC 2982
Edwardsiella tarda = test system: Edwardsiella tarda
[13] = test system: Vibrio alginolyticus KCCM 2928
[14] = test system: Streptococcus iniae FP5228
[15] = test system: Staphylococcus aureus ATCC 43300
Enterococcus faecalis = test system: Enterococcus faecalis
[16] = test system: Escherichia coli ATCC BAA-2523
Enterococcus faecalis VR = test system: Enterococcus faecalis VR
[17] = test system: Escherichia coli ATCC 25922 ΔrfaC
[18] = test system: Aeromonas salmonicida ATCC 33658
[19] = test system: Pseudomonas aeruginosa ATCC 27853
[20] = test system: Escherichia coli BW25113 ΔrfaC
[21] = test system: Salmonella enterica subsp. enterica serovar Typhimurium LT2
[22] = test system: Yersinia ruckeri 392/2003
[23] = test system: Campylobacter jejuni NCTC 11168
Escherichia coli BW25113 = test system: Escherichia coli BW25113
[24] = test system: Escherichia coli ATCC 25922
[25] = test system: Flavobacterium psychrophilum 1947
[26] = test system: Listeria monocytogenes N22-2
Pseudomonas aeruginosa = test system: Pseudomonas aeruginosa
[27] = test system: Staphylococcus aureus ATCC 29213
[28] = test system: Enterococcus faecalis ATCC 29212
[29] = test system: Xanthomonas oryzae pv. oryzae
Bacillus subtilis = test system: Bacillus subtilis
[30] = test system: Escherichia coli DH5alpha
[31] = test system: Xanthomonas campestris pv. campestris
[32] = test system: Cryptococcus neoformans var. grubii H99
[33] = test system: Pseudomonas aeruginosa CGMCC 1.860
[34] = test system: Pseudomonas aeruginosa 0108
Bacillus cereus AS1.126 = test system: Bacillus cereus AS1.126
[35] = test system: Enterococcus faecium CGMCC 1.2334
[36] = test system: Enterococcus faecalis CGMCC 1.595
[37] = test system: Lactococcus lactis AS1.1690
Escherichia coli AS1.349 = test system: Escherichia coli AS1.349
[38] = test system: Staphylococcus aureus AS1.72

## CC(C)C[C@H](NC(=O)CNC(=O)[C@H](Cc1cnc[nH]1)NC(=O)[C@H](Cc1cnc[nH]1)NC(=O)[C@H](CCCN=C(N)N)NC(=O)[C@H](CCCCN)NC(=O)[C@H](C)N)C(=O)N[C@@H](CC(N)=O)C(=O)N[C@@H](CS)C(=O)N[C@@H](C)C(=O)N[C@@H](CCCCN)C(=O)NCC(=O)N[C@H](C(=O)N[C@@H](CC(C)C)C(=O)N[C@@H](C)C(N)=O)C(C)C [AKRHHGLNCAKGVLA]
Candida albicans SC5314
  MIC: 14.4 µM (≈ 22.6 µg/mL)
[1]
  MIC: 3.59 µM (≈ 5.65 µg/mL)
[2]
  MIC: 14.4 µM (≈ 22.6 µg/mL)
[3]
  MIC: 3.59 µM (≈ 5.65 µg/mL)

## CC[C@H](C)[C@H](NC(=O)CNC(=O)[C@H](CCCN=C(N)N)NC(=O)[C@H](Cc1ccccc1)NC(=O)[C@@H](NC(=O)[C@H](Cc1cnc[nH]1)NC(=O)[C@H](Cc1cnc[nH]1)NC(=O)[C@H](Cc1ccccc1)NC(=O)[C@@H](N)Cc1ccccc1)[C@@H](C)CC)C(=O)N[C@H](C(=O)N[C@@H](Cc1cnc[nH]1)C(=O)N[C@H](C(=O)NCC(=O)N[C@@H](CCCCN)C(=O)N[C@H](C(=O)N[C@@H](C)C(=O)N[C@@H](Cc1cnc[nH]1)C(=O)N[C@@H](CCCN=C(N)N)C(=O)N[C@@H](CC(C)C)C(=O)N[C@H](C(=O)N[C@H](C(=O)NCC(N)=O)[C@@H](C)O)C(C)C)[C@@H](C)O)C(C)C)C(C)C [FFHHIFRGIVHVGKTAHRLVTG]
[4]
  MIC: 8 µM (≈ 20.2 µg/mL)
Acinetobacter baumannii
  MIC: 1.23 µM (≈ 3.1 µg/mL)
[5]
  MIC: 8 µM (≈ 20.2 µg/mL)
[6]
  MIC: 0.593 µM (≈ 1.5 µg/mL)
[7]
  MIC: 12 µM (≈ 30.3 µg/mL)
Staphylococcus aureus
  MIC: 1.23 µM (≈ 3.1 µg/mL)
[8]
  MIC: 9.88 µM (≈ 25 µg/mL)

## CC[C@H](C)[C@H](NC(=O)[C@H](C)NC(=O)[C@H](Cc1cnc[nH]1)NC(=O)CNC(=O)[C@@H](NC(=O)CNC(=O)[C@H](Cc1cnc[nH]1)NC(=O)[C@H](CC(C)C)NC(=O)[C@H](CC(C)C)NC(=O)[C@H](CCSC)NC(=O)CNC(=O)[C@H](CC(C)C)NC(=O)[C@H](Cc1ccccc1)NC(=O)CNC(=O)[C@H](CCC(=O)O)NC(=O)CN)C(C)C)C(=O)N[C@@H](Cc1cnc[nH]1)C(=O)NCC(=O)N[C@@H](CC(C)C)C(=O)N[C@H](C(=O)N[C@@H](Cc1cnc[nH]1)C(=O)NCC(=O)N[C@@H](CCCCN)C(=O)O)[C@@H](C)CC [GEGFLGMLLHGVGHAIHGLIHGK]
Escherichia coli JM109
  MIC: 2.72 µM (≈ 6.4 µg/mL)
[9]
  MIC: 1.9 µM (≈ 4.47 µg/mL)
[10]
  MIC: 0.9 µM (≈ 2.12 µg/mL)
[11]
  MIC: 0.9 µM (≈ 2.12 µg/mL)
[12]
  MIC: 5.52 µM (≈ 13 µg/mL)
Edwardsiella tarda
  MIC: ≥ 354 µM
[13]
  MIC: 1.31 µM (≈ 3.07 µg/mL)
[14]
  MIC: 0.9 µM (≈ 2.12 µg/mL)

## CC[C@H](C)[C@H](NC(=O)[C@H](CC(C)C)NC(=O)[C@H](CCCCN)NC(=O)[C@H](CC(C)C)NC(=O)[C@H](CC(C)C)NC(=O)[C@H](CCCCN)NC(=O)[C@H](CCCN=C(N)N)NC(=O)[C@H](Cc1ccccc1)NC(=O)[C@H](CC(C)C)NC(=O)[C@H](CCCCN)NC(=O)[C@H](CCCN=C(N)N)NC(=O)[C@H](CC(C)C)NC(=O)[C@@H](N)CCCCN)C(=O)N[C@@H](CCCN=C(N)N)C(=O)N[C@@H](CCCCN)C(=O)N[C@@H](CC(C)C)C(=O)N[C@@H](CC(C)C)C(=O)N[C@@H](CCCN=C(N)N)C(=O)O [KLRKLFRKLLKLIRKLLR]
[15]
  MIC: 16 µM (≈ 37.4 µg/mL)
Enterococcus faecalis
  MIC: 16 µM (≈ 37.4 µg/mL)
[16]
  MIC: ≥ 32 µM
Enterococcus faecalis VR
  MIC: 16 µM (≈ 37.4 µg/mL)
[17]
  MIC: 6.85 µM (≈ 16 µg/mL)
[18]
  MIC: 19.4 µM (≈ 45.3 µg/mL)
[19]
  MIC: 9.69 µM and 16 µM
[20]
  MIC: 3.42 µM (≈ 8 µg/mL)
[21]
  MIC: 6.85 µM (≈ 16 µg/mL)
[22]
  MIC: 4.84 µM (≈ 11.3 µg/mL)
[23]
  MIC: 0.856 µM (≈ 2 µg/mL)
Escherichia coli BW25113
  MIC: 6.85 µM (≈ 16 µg/mL)
[24]
  MIC: 9.69 µM and 16 µM
[25]
  MIC: ≥ 110 µM
[26]
  MIC: 6.85 µM (≈ 16 µg/mL)
Pseudomonas aeruginosa
  MIC: 16 µM (≈ 37.4 µg/mL)
[27]
  MIC: 6.85 µM and 16 µM
[28]
  MIC: 4.84 µM (≈ 11.3 µg/mL)

## CC(C)C[C@H](NC(=O)CNC(=O)[C@H](CS)NC(=O)CNC(=O)[C@H](CC(N)=O)NC(=O)CNC(=O)[C@H](Cc1c[nH]c2ccccc12)NC(=O)CNC(=O)[C@H](CCCN=C(N)N)NC(=O)[C@H](C)NC(=O)[C@@H](N)C(C)C)C(=O)N[C@@H](Cc1ccccc1)C(=O)NCC(=O)N[C@@H](CCCCN)C(=O)NCC(=O)NCC(=O)O [VARGWGNGCGLFGKGG]
[29]
  MIC: ≥ 100 µM
Candida albicans SC5314
  MIC: ≥ 100 µM
[19]
  MIC: > 100 µM
Bacillus subtilis
  MIC: ≥ 100 µM
[30]
  MIC: ≥ 100 µM
[31]
  MIC: ≥ 100 µM
[32]
  MIC: ≥ 100 µM

## CC[C@H](C)[C@H](NC(=O)[C@H](CCCCN)NC(=O)[C@H](CO)NC(=O)[C@H](CC(C)C)NC(=O)[C@@H](NC(=O)[C@H](CCCCN)NC(=O)[C@H](CCCCN)NC(=O)[C@@H](N)Cc1c[nH]c2ccccc12)[C@@H](C)CC)C(=O)N[C@@H](CCCCN)C(=O)N[C@@H](CCCCN)C(=O)N[C@@H](CC(C)C)C(=O)N[C@@H](CC(C)C)C(=O)N[C@@H](CCCCN)C(N)=O [WKKILSKIKKLLK]
[33]
  MIC: 3.13 µM (≈ 5.09 µg/mL)
[34]
  MIC: 6.25 µM (≈ 10.2 µg/mL)

## NC(N)=NCCC[C@H](NC(=O)[C@H](Cc1cnc[nH]1)NC(=O)[C@H](Cc1c[nH]c2ccccc12)NC(=O)[C@H](Cc1ccccc1)NC(=O)[C@H](CCCN=C(N)N)NC(=O)[C@H](CCCN=C(N)N)NC(=O)[C@H](Cc1c[nH]c2ccccc12)NC(=O)[C@H](Cc1cnc[nH]1)NC(=O)[C@H](CCCN=C(N)N)NC(=O)[C@@H](N)Cc1c[nH]c2ccccc12)C(=O)O [WRHWRRFWHR]
Bacillus cereus AS1.126
  MIC: 6.25 µM (≈ 10.1 µg/mL)
[35]
  MIC: 6.25 µM (≈ 10.1 µg/mL)
[33]
  MIC: 3.13 µM (≈ 5.08 µg/mL)
[36]
  MIC: 3.13 µM (≈ 5.08 µg/mL)
[37]
  MIC: 6.25 µM (≈ 10.1 µg/mL)
Escherichia coli AS1.349
  MIC: 25 µM (≈ 40.6 µg/mL)
[38]
  MIC: ≥ 50 µM

Reference: DBAASP
